Assay type in all cases: cell-based
Assay [1] relates to A549 lung cancer cells. Kind of assay: Transwell migration assay of A549 cells expressing FoxM1 WT or point mutants. The settings on record: Transwell, 72 hours, control set to 1; TGF-β 5 ng/ml positive control. The procedure:
To examine the effects of FoxM1 WT, phosphorylation, and non-phosphorylated point mutants on the motility of cancer cells, the migration assay was performed in A549 lung cancer cells expressing mutant proteins.
Specifically, 5×10^4 cells of lung cancer cells A549 expressing each of WT, phosphorylation, and non-phosphorylated point mutant of FoxM1 were seeded in an 8.0 μm, 24 well insert, and the inserts were placed in a 24-well plate after medium with 10% fetal bovine serum (FBS) was dispensed in the 24-well plate. For the positive control, 0.5 ml of RPMI1640 (10% FBS) containing 5 ng/ml of TGF-β was used. After 72 hours from cell seeding, 500 μl of 4% paraformaldehyde was dispensed, washed three times with 1×PBS, and stained with 0.05% crystal violet solution for 5 minutes. After 5 minutes, the cells were washed five times with 1×PBS, and the staining intensity was measured using the Odyssey infrared imaging system.
Specifically, 5×10^4 cells of lung cancer cells A549 expressing control and FoxM1 WT were seeded in an 8.0 μm, 24 well insert, and the inserts were placed in a 24-well plate after medium with 10% fetal bovine serum (FBS) was dispensed in the 24-well plate. For the positive control, 0.5 ml of RPMI1640 (10% FBS) containing 5 ng/ml of TGF-β was added and used. After 72 hours from cell seeding, 500 μl of 4% paraformaldehyde was dispensed, washed three times with 1×PBS, and stained with 0.05% crystal violet solution for 5 minutes. After 5 minutes, the cells were washed five times with 1×PBS, and the staining intensity was measured using the Odyssey infrared imaging system.

Assay [2] has as its system A549 lung cancer cells. Kind of assay: Wound healing assay of A549 cells expressing FoxM1 phosphorylated point mutants. The conditions noted are these: distance in the control group at 72 h set to 0%. On the procedure: To observe the effects of phosphorylation point mutations on the motility of cancer cells, a wound healing assay was performed in lung cancer cells A549 expressing FoxM1 wild type (WT), phosphorylated point mutants S25E, S361E, and S715E, and a simultaneous triple-point mutation EEE protein.
Specifically, cells expressing the gene of FoxM1 point mutant by the lentivirus system were seeded into 6-well plates at 1×10^5 cells/well each. 24 hours after cell seeding, scratches were made at regular intervals using a 200 μl-pipette tip. In addition, A549 cells treated with mock as a negative control (Mock) and 5 ng/ml of TGF-β as a positive control were used. […] In addition, the distance in the control group at 72 h was set to 0%, and the relative distance was represented as a bar graph (FIG. 4G).

Assay [3] deals with A549 lung cancer cells. Kind of assay: Migration assay of TGF-β-treated A549 cells treated with peptide. The settings on record: TGF-β 5 ng/ml, 48 hours. The procedure:
To determine the effects of treatment of the FoxM1 non-phosphorylated point mutant peptide on cancer cell motility in the metastatic environment treated with TGF-β, a migration assay was performed.
Specifically, 5×10^4 cells of A549 lung cancer cells were seeded in an 8.0 μm, 24 well insert, and the inserts were placed in a 24-well plate after medium with 10% fetal bovine serum (FBS) was dispensed in the 24-well plate. For the positive control, 0.5 ml of RPMI1640 (10% FBS) containing 5 ng/ml of TGF-β was dispensed, and 5 μM of the non-phosphorylated point mutant peptide was treated simultaneously. After 48 hours from cell seeding, 500 μl of 4% paraformaldehyde was dispensed into the plate, and the plate was washed three times with 1×PBS and stained with 0.05% crystal violet solution for 5 minutes. After 5 minutes, the plate was washed with 1×PBS five times, and the stained intensity was measured using the Odyssey infrared imaging system. When the stained intensity of the control group was set to 1, the relative stained intensity of each experimental group was represented in a graph.

On to TGF-β [reference compound], for which the “cancer cell migration (stained intensity), increase compared to the control group” value in the assay with A549 lung cancer cells [1] is recorded as “approximately 4 fold”. The “relative healing distance (motility) at 72 h” value in the assay on A549 lung cancer cells [2] stood at 51%. The “stained intensity (migration) compared to the control group” value with A549 lung cancer cells [3] is given as 4 folds.

(Values after patent US20250340881A1, “PHARMACEUTICAL COMPOSITION FOR TREATING CANCER COMPRISING FOXM1 MUTANT OR FOXM1 SHRNA” (Industry-University Cooperation Foundation Hanyang …, priority 2022, published 2025).)
